Experimental data from US20250136555A1 (HARBIN MEDISAN PHARMACEUTICAL CO., LTD., priority 2022, published 2025).
Read-outs that look alike come from different tables or passages of the source.

What was measured:
Type in all cases: cell-based
PPARδ = molecular target: T1, PPARδ (Homo sapiens, UniProt Q03181); test: GAL4 hybrid reporter gene method, PPARδ agonistic activity
T1 construct: expressed in transfected cells; host or cells: COS-7
T1 sequence (Q03181 211-439 limits assumed): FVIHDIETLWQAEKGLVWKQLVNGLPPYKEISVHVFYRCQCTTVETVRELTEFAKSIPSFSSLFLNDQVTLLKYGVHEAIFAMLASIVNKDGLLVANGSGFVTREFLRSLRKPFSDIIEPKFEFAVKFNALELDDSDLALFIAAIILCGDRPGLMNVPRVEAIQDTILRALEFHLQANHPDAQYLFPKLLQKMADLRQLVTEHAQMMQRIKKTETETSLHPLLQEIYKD
Description: (§1) Cos-7 cells (African green monkey kidney fibroblasts, commonly used tool cells) were cultured in a 10-cm cell culture dish with a DMEM complete medium containing 10% fetal bovine serum. When growing at a density of about 70%, the cells were ready for transfection. […] The working solution described above was then combined with 8 mL of the DMEM complete medium, and the mixture was added to the cell culture dish for cell transfection. After 4 h of transfection, the cells were digested, resuspended, and seeded into a 96-well plate at 25,000 cells/well. […] 10 μL of a reporter gene detection solution (purchased from Shanghai Beyotime Biological Tech. Co., Ltd.) was added. After the resulting solution was mixed and reacted, biological fluorescence was detected by using a multifunctional microplate reader, and corresponding half maximal effective concentration (EC50) values were calculated according to the detection values. […] Transfection working solutions for different nuclear receptors were prepared and added into COS-7 cells. The preparation method for the transfection working solution was as follows: the constructed pBIND-Gal4-PPARα (LBD) (or pBIND-Gal4-PPARδ (LBD) plasmid or pBIND-Gal4-PPARγ (LBD) plasmid or pBIND-Gal4-RARα (LBD) plasmid or pBIND-Gal4-RARγ (LBD) plasmid or pBIND-Gal4-RARβ (LBD) plasmid or pBIND-Gal4-RORα (LBD) plasmid or pBIND-Gal4-RORγ (LBD) plasmid or pBIND-Gal4-RORβ (LBD) plasmid or pBIND-Gal4-FXR (LBD) plasmid or pBIND-Gal4-RXRα.

PPARγ = molecular target: T2, PPARγ (Homo sapiens, UniProt P37231); test: GAL4 hybrid reporter gene method, PPARγ agonistic activity
T2 construct: expressed in transfected cells; host or cells: COS-7
T2 sequence (P37231 238-503 limits assumed): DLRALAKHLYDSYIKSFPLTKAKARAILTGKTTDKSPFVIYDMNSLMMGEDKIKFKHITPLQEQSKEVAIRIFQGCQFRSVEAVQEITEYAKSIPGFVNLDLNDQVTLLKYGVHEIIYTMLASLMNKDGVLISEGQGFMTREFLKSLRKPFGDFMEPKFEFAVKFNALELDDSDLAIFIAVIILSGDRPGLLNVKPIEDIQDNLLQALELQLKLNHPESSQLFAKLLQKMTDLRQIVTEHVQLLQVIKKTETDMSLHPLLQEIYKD
Description: as §1

PPARα = molecular target: T3, PPARα (Homo sapiens, UniProt Q07869); test: GAL4 hybrid reporter gene method, PPARα agonistic activity; details: Cos-7 cells, Gal4-PPARα (LBD); GW7647 10 nM = 100%; 16 h
T3 construct: expressed in transfected cells; host or cells: COS-7
T3 sequence (Q07869 239-466 limits assumed): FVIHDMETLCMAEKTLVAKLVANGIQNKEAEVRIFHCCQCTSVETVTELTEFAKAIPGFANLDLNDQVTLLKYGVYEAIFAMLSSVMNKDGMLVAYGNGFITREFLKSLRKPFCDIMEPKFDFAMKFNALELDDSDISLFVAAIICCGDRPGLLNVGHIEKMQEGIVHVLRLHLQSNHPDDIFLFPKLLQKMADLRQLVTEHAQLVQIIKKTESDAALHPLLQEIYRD
Description: as §1

[1] = Cos-7 cells, Gal4-PPARδ (LBD), GW501516 10 nM = 100%, 16 h
[2] = Cos-7 cells, Gal4-PPARγ (LBD), Rosiglitazone 1 μM = 100%, 16 h

Row | SMILES | EC50 (PPARδ; [1]) [nM] | PPARδ EC50 (nM) (PPARδ; [1]) | EC50 (PPARγ) [nM] | EC50 (PPARα) [nM] | EC50 (PPARδ) [nM] | EC50 (PPARγ; [2]) [nM] | PPARα EC50 (nM) (PPARα)
1 | Cc1cc(CN2C(=O)CN(c3ccc(OC(F)(F)F)cc3)C2=O)cc(C)c1OC(C)(C)C(=O)O [Compound 3, 2-(4-((2,5-Dioxo-3-(4-(trifluoromethoxy)phenyl)imidazolidin-1-yl)methyl)-2,6-dimethylphenoxy)-2-methylpropionic Acid] | 4.4 | low nanomolar levels | 4150 |  |  |  | 
2 | Cc1cc(CN2C(=O)N(c3ccc(C(F)(F)F)cc3)C(C)(C)C2=O)cc(C)c1OC(C)(C)C(=O)O [Compound 5, 2-(4-((4,4-Dimethyl-2,5-dioxo-3-(4-(trifluoromethyl)phenyl)imidazolin-1-yl)methyl)-2,6-dimethylphenoxy)-2-methylpropionic Acid] | 60 |  |  | 252 |  |  | 
3 | Cc1cc(CN2C(=O)N(c3ccc(OC(F)(F)F)cc3)C(C)(C)C2=O)cc(C)c1OC(C)(C)C(=O)O [Compound 7] |  |  |  | 668 | 176 |  | 
4 | Cc1cc(CN2C(=O)CN(c3ccc(C(F)(F)F)cc3)C2=O)ccc1OCC(=O)O [Compound 9, 2-(4-((2,5-Dioxo-3-(4-(trifluoromethyl)phenyl)imidazolidin-1-yl)methyl)-2-methylphenoxy)acetic Acid] |  |  | > 5000 | 994 | 976 |  | 
5 | CC(C)(Oc1ccc(CN2C(=O)CN(c3ccc(C(F)(F)F)cc3)C2=O)cc1C(F)(F)F)C(=O)O [Compound 11, 2-(4-((2,5-Dioxo-3-(4-(trifluoromethyl)phenyl)imidazolidin-1-yl)methyl)-2-(trifluoromethyl)phenoxy)-2-methylpropionic Acid] |  |  | 2480 | 77.1 | 33.1 |  | 
6 | CC(C)(Oc1c(Cl)cc(CN2C(=O)CN(c3ccc(C(F)(F)F)cc3)C2=O)cc1Cl)C(=O)O [Compound 17, 2-(2,6-Dichloro-4-((2,5-dioxo-3-(4-(trifluoromethyl)phenyl)imidazolidin-1-yl)methyl)phenoxy)-2-methylpropionic Acid] | 24.8 |  |  |  |  |  | 
7 | CC(C)(Oc1c(F)cc(CN2C(=O)CN(c3ccc(C(F)(F)F)cc3)C2=O)cc1F)C(=O)O [Compound 21, 2-(4-((2,5-Dioxo-3-(4-(trifluoromethyl)phenyl)imidazolin-1-yl)methyl)-2,6-difluorophenoxy)-2-methylpropionic Acid] | 101 |  | > 5000 | 42.9 |  |  | 
8 | Cc1ccc(N2CC(=O)N(Cc3cc(C)c(OC(C)(C)C(=O)O)c(C)c3)C2=O)cc1 [Compound 23, 2-(4-((2,5-Dioxo-3-(4-methylphenyl)imidazolin-1-yl)methyl)-2,6-dimethylphenoxy)-2-methylpropionic Acid] | 25.7 |  |  | 26.5 |  | 629 | 
9 | Cc1cc(CN2C(=O)CN(c3ccc(F)cc3)C2=O)cc(C)c1OC(C)(C)C(=O)O [Compound 25, 2-(4-((3-(4-Fluorophenyl)-2,5-dioxoimidazolin-1-yl)methyl)-2,6-dimethylphenoxy)-2-methylpropionic Acid] | 72.3 |  |  | 101 |  | 3640 | 
10 | Cc1cc(CN2C(=O)CN(c3ccc(Cl)cc3)C2=O)cc(C)c1OC(C)(C)C(=O)O [Compound 27, 2-(4-((3-(4-Chlorophenyl)-2,5-dioxoimidazolin-1-yl)methyl)-2,6-dimethylphenoxy)-2-methylpropionic Acid] |  |  |  | 17 |  | 1420 | 
11 | Cc1cc(CN2C(=O)CN(c3ccccc3)C2=O)cc(C)c1OC(C)(C)C(=O)O [Compound 35, 2-(4-((2,5-Dioxo-3-phenylimidazolin-1-yl)methyl)-2,6-dimethylphenoxy)-2-methylpropionic Acid] | 90.5 |  |  | 166 |  | 2100 | 
12 | Cc1cc(CN2C(=O)CN(c3ccc(C#N)cc3)C2=O)cc(C)c1OC(C)(C)C(=O)O [Compound 37, 2-(4-((3-(4-Cyanobenzene)-2,5-dioxoimidazolin-1-yl)methyl)-2,6-dimethylphenoxy)-2-methylpropionic Acid] | 84.4 |  |  | 98.1 |  | 4060 | 
13 | COc1ccc(N2CC(=O)N(Cc3cc(C)c(OC(C)(C)C(=O)O)c(C)c3)C2=O)cc1 [Compound 39, 2-(4-((3-(4-Methoxyphenyl)-2,5-dioxoimidazolin-1-yl)methyl)-2,6-dimethylphenoxy)-2-methylpropionic Acid] | 36.1 |  |  | 18.8 |  | 3370 | 
14 | CSc1ccc(N2CC(=O)N(Cc3cc(C)c(OC(C)(C)C(=O)O)c(C)c3)C2=O)cc1 [Compound 43] |  | low nanomolar levels |  |  |  |  | low nanomolar levels
15 | Cc1cc(CN2C(=O)CN(c3ccc(Br)cc3)C2=O)cc(C)c1OC(C)(C)C(=O)O [Compound 61, 2-(4-((3-(4-Bromophenyl)-2,5-dioxoimidazolin-1-yl)methyl)-2,6-dimethylphenoxy)-2-methylpropionic Acid] |  |  |  | 3.9 |  | 1200 | low nanomolar levels
16 | Cc1cc(CN2C(=O)CN(c3ccc(C(F)(F)F)cc3)C2=O)cc(C)c1OC(C)C(=O)O (stereo not drawn) [Compound 63, 2-(4-((2,5-Dioxo-3-(4-(trifluoromethyl)phenyl)imidazolin-1-yl)methyl)-2,6-dimethylphenoxy)propionic Acid] |  |  |  | 25.1 | 4 |  | 
17 | Cc1cc(CN2C(=O)CN(Cc3ccc(C(F)(F)F)cc3)C2=O)cc(C)c1OC(C)(C)C(=O)O [Compound 93] |  |  |  |  |  | 1490 | 

Other lines, results leading:

Row | EC50 (PPARδ; [1]) [nM] | PPARδ EC50 (nM) (PPARδ; [1]) | EC50 (PPARγ) [nM] | EC50 (PPARα) [nM] | EC50 (PPARδ) [nM] | EC50 (PPARγ; [2]) [nM] | PPARα EC50 (nM) (PPARα) | SMILES
18 |  |  | 1290 | 1.2 | 10.8 |  |  | Cc1cc(CN2C(=O)CN(c3ccc(C(F)(F)F)cc3)C2=O)cc(Cl)c1OC(C)(C)C(=O)O [Compound 13, 2-(2-Chloro-4-((2,5-dioxo-3-(4-(trifluoromethyl)phenyl)imidazolidin-1-yl)methyl)-6-methylphenoxy)-2-methylpropionic Acid]
19 | 23.6 |  |  | 2.2 |  |  |  | CC(C)(Oc1c(Br)cc(CN2C(=O)CN(c3ccc(C(F)(F)F)cc3)C2=O)cc1Br)C(=O)O [Compound 19, 2-(2,6-Dibromo-4-((2,5-dioxo-3-(4-(trifluoromethyl)phenyl)imidazolidin-1-yl)methyl)phenoxy)-2-methylpropionic Acid]
20 |  | low nanomolar levels | 736 | 1.4 | 1 |  | low nanomolar levels | Cc1cc(N2CC(=O)N(Cc3cc(C)c(OC(C)(C)C(=O)O)c(C)c3)C2=O)ccc1C(F)(F)F [Compound 29, 2-(2,6-Dimethyl-4-((3-(3-methyl-4-(trifluoromethyl)phenyl)-2,5-dioxoimidazolin-1-yl)methyl)phenoxy)-2-methylpropionic Acid]
21 | 0.8 |  |  | 2.1 |  |  |  | Cc1cc(CN2C(=O)CN(c3ccc(C(F)(F)F)c(F)c3)C2=O)cc(C)c1OC(C)(C)C(=O)O [Compound 31, 2-(2,6-Dimethyl-4-((3-(3-fluoro-4-(trifluoromethyl)phenyl)-2,5-dioxoimidazolin-1-yl)methyl)phenoxy)-2-methylpropionic Acid]
22 | 1.7 | low nanomolar levels |  | 1 |  | 657 | low nanomolar levels | Cc1cc(CN2C(=O)CN(c3ccc(C(F)(F)F)c(Cl)c3)C2=O)cc(C)c1OC(C)(C)C(=O)O [Compound 33, 2-(2,6-Dimethyl-4-((3-(3-chloro-4-(trifluoromethyl)phenyl)-2,5-dioxoimidazolin-1-yl)methyl)phenoxy)-2-methylpropionic Acid]
23 | 6.2 | low nanomolar levels |  | 0.9 |  | 630 | low nanomolar levels | Cc1cc(CN2C(=O)CN(c3ccc(-c4ccccc4)cc3)C2=O)cc(C)c1OC(C)(C)C(=O)O [Compound 41]
24 | 5.9 | low nanomolar levels |  | 3.8 |  | 996 | low nanomolar levels | Cc1cc(CN2C(=O)CN(c3cccc(C(F)(F)F)c3)C2=O)cc(C)c1OC(C)(C)C(=O)O [Compound 45, 2-(4-((2,5-Dioxo-3-(3-(trifluoromethyl)phenyl)imidazolin-1-yl)methyl)-2,6-dimethylphenoxy)-2-methylpropionic Acid]
25 |  |  |  | 0.8 |  | 971 |  | Cc1cc(CN2C(=O)CN(c3ccc(C(C)C)cc3)C2=O)cc(C)c1OC(C)(C)C(=O)O [Compound 65, 2-(4-((3-(4-Isopropylphenyl)-2,5-dioxoimidazolin-1-yl)methyl)-2,6-dimethylphenoxy)-2-methylpropionic Acid]
26 | 6.3 | low nanomolar levels |  | 1 |  |  | low nanomolar levels | CCc1ccc(N2CC(=O)N(Cc3cc(C)c(OC(C)(C)C(=O)O)c(C)c3)C2=O)cc1 [Compound 75, 2-(4-(3-(4-Ethylphenyl)-2,5-dioxoimidazolidin-1-yl)methyl)-2,6-dimethylphenoxy-2-methylpropionic Acid]
